Earlier results on two compounds are cited in patent US20040018228A1, “Compositions and methods for reducing scar tissue formation” (Afmedica, Inc., priority 2000, published 2004).

In one data set the test system is keloids. The conditions noted are these: in vivo.

SMILES strings stand for the structures.

Consider `C=CC[C@@H]1/C=C(\C)C[C@H](C)C[C@H](OC)[C@H]2O[C@@](O)(C(=O)C(=O)N3CCCC[C@H]3C(=O)O[C@H](/C(C)=C/[C@@H]3CC[C@@H](O)[C@H](OC)C3)[C@H](C)[C@@H](O)CC1=O)[C@H](C)C[C@@H]2OC` [tacrolimus], for which the treatment of keloids entry in the data set with keloids is “effectively treat keloids”.

`CO[C@H]1C[C@@H]2CC[C@@H](C)[C@@](O)(O2)C(=O)C(=O)N2CCCC[C@H]2C(=O)O[C@H]([C@H](C)C[C@@H]2CC[C@@H](O)[C@H](OC)C2)CC(=O)[C@H](C)/C=C(\C)[C@@H](O)[C@@H](OC)C(=O)[C@H](C)C[C@H](C)/C=C/C=C/C=C/1C` [sirolimus]: the “solubility in aqueous solutions” value is on record as “not to be readily soluble in aqueous solutions”.
